# Measurements: publication PMC10154249, “Unique progerin C-terminal peptide ameliorates Hutchinson–Gilford progeria syndrome phenotype by rescuing BUBR1” (Nature Aging, 2023)
# Values joined by “and” are separate entries in the source; they are usually repeats but may differ in a detail not shown here. Identical values can stand only once.
# Columns and labels:
# HGADFN167 cells = experiment: SA-β-gal staining of HGADFN167 cells; assay type: cell-based, human
# Protocol: SA-β-gal staining was performed as previously described. Cells were fixed in 0.5% glutaraldehyde for 15 min at room temperature, washed three times with PBS (pH 6.0) containing 1 mM MgCl2 and exposed overnight 37 °C to containing 1 mg ml^–1 5-bromo-4-chloro-3-indolyl-β-D-galactopyranoside (MCE, catalog no. HY-15934), 0.12 mM potassium ferrocyanide (Sigma, catalog no. P3289), 0.12 mM potassium ferricyanide (Sigma, catalog no. P8131) and 1 mM MgCl2 PBS buffer (pH 6.0). Cells were washed three times with H2O and observed under a microscope (OLYMPUS CKX53). SA-β-gal positive cells were quantified by investigators who were blinded to the identity of the analyzed cell.
# Lmna^G609G/G609G mice [1] = experiment: Open field test; assay type: in vivo, mouse; settings: for Distance: LmnaG609G/G609G-UPCP, one line per mouse
# Protocol: For UPCP injection, 14-day-old Lmna^G609G/G609G mice were injected intraperitoneally with either PBS or UPCP (20 mg kg^–1, every other day) and wild-type mice were injected with PBS. All phenotypic analyses were performed after 12 weeks of treatment with UPCP. Bodyweight and lifespan were monitored after UPCP treatment. The survival rate was analyzed by the Kaplan–Meier method. We only included mice that were of sufficient bodyweight at the start of the experiment, typically at least 80% of the average littermate weight of the same sex and genotype. All animals meeting criteria for inclusion were then divided randomly into three groups according to genotype (Lmna^+/+, Lmna^G609G/G609G-Mock and Lmna^G609G/G609G-UPCP).
# The mice were acclimated to the testing room for 2 h before the test. Before each individual trial, the testing apparatus was cleaned with 75% ethanol. Mice were placed individually in a random corner of the box (40 × 40 × 35 cm) facing the wall. Their movements, indicating locomotor activity, were recorded with a video camera for 20 min and were analyzed with Ethovision XT 10 (Noldus).
# BUBR1–PTBP1 binding = experiment: CoIP of PTBP1 and BUBR1 in HEK-293T cells; assay type: cell-based; settings: UPCP 18 μM, 48 h
# Protocol: Detailed descriptions of CoIP were described previously[55],[56]. Cells were harvested and washed three times in cold PBS, then lysed in CoIP buffer (25 mM Tris-HCl (pH 7.5), 150 mM KCl, 5 mM EDTA, and 0.5% NP-40) plus protease inhibitor cocktail tablet (Roche). Incubate on ice and shock lysates on the vortex shaker 15 times for 30 s each. Microcentrifuge in 12,000g for 15 min at 4 °C, collect the supernatant, and incubate with 3 μg primary antibodies with gentle shaking overnight at 4 °C, followed by adding 20–40 μl Pure Proteome Protein A/G Mix Magnetic Beads (Millipore, catalog no. […]02) for 3 h. Wash the beads three times with 1 ml CoIP buffer for 8 min each, resuspend in 50 μl 1× loading buffer, and incubate at 100 °C for 8 min. Throw beads away and analyze by immunoblotting.
# Lmna^G609G/G609G mice [2] = experiment: Bodyweight of Lmna^G609G/G609G mice; assay type: in vivo, mouse; settings: 20 mg kg^–1 i.p. every other day from 14 days of age
# Text: All animal experiments were approved by the Ethics Committee of School of Life Sciences, Northeast Normal University, China (AP20191011) and carried out in accordance with the relevant guidelines: National Standards of the People’s Republic of China (GB/T 35892–2018), Laboratory Animal—Guideline for Ethical Review of Animal Welfare. We generated a mouse model (ICR background), carrying the Lmna^G609G using the BE4-Gam system. The protocols for the BE4-Gam system and microinjection of pronuclear-stage embryos have been described in detail previously[37],[38],[59]. Briefly, a mixture of BE4-Gam mRNA (200 ng μl^–1) and sgRNA-Lmna (30 ng μl^–1) was coinjected into the cytoplasm of pronuclear-stage embryos of the mouse. The injected embryos were transferred to embryo culture medium for 30–60 min, followed by transferring the injected embryos into the recipient mother. The embryos continued to develop and the founder mice (referred to as F0) were born: wild-type mice (Lmna^+/+), heterozygous mice (Lmna^G609G/+) and homozygous mice (Lmna^G609G/G609G). […]
# For UPCP injection, 14-day-old Lmna^G609G/G609G mice were injected intraperitoneally with either PBS or UPCP (20 mg kg^–1, every other day) and wild-type mice were injected with PBS. […] Bodyweight and lifespan were monitored after UPCP treatment. The survival rate was analyzed by the Kaplan–Meier method. […]
# BUBR1 = target: T1, BUBR1 (Homo sapiens, UniProt O60566); experiment: Microscale thermophoresis (MST) of UPCP and BUBR1; assay type: binding; settings: Fig. 3d
# T1 construct: made in house
# Protocol: Cells were harvested and lysed in buffer A mixed with protease inhibitor cocktail tablet (Roche) after 48 h. […] The beads were washed three times using 1× Tris saline buffer (50 mM Tris-HCl (pH 7.4) and 150 mM NaCl)) for 8 min each. The bound proteins BUBR1 or PTBP1 were eluted with 3×Flag peptide (ApexBio) for 2 h at 4 °C. Finally, BUBR1 or PTBP1 was concentrated and recovered by using the Centrifugal Filters (Amicon Ultra).
# His-UPCP was eluted with Imidazole eluent for 2 h at 4 °C and concentrated and recovered by using centrifugal filters (Amicon Ultra). Flag-BUBR1 or PTBP1 was purified as described in Affinity purification of Flag-tagged protein. The purified protein was diluted with 0.05% Tween-20 in PBS in to an appropriate concentration (His-UPCP: 50 nM, Flag-BUBR1: 25 μM, Flag-PTBP1: 45 μM). Then, His-UPCP was labeled with RED-Tris-NAT according to the manufacturer’s instructions (NanoTemper, MO-L018). Flag-BUBR1 or Flag-PTBP1 was diluted by 16 concentration gradients in turn and mixed with labeled protein (His-UPCP). The capillaries (MST NT115 premium) were loaded and the samples measured on the instrument (NanoTemper Monolith NT.115). Data were analyzed by MO.AffinityAnalysis and curves were drawn using Origin 2019.
# T1 sequence (O60566 whole entry): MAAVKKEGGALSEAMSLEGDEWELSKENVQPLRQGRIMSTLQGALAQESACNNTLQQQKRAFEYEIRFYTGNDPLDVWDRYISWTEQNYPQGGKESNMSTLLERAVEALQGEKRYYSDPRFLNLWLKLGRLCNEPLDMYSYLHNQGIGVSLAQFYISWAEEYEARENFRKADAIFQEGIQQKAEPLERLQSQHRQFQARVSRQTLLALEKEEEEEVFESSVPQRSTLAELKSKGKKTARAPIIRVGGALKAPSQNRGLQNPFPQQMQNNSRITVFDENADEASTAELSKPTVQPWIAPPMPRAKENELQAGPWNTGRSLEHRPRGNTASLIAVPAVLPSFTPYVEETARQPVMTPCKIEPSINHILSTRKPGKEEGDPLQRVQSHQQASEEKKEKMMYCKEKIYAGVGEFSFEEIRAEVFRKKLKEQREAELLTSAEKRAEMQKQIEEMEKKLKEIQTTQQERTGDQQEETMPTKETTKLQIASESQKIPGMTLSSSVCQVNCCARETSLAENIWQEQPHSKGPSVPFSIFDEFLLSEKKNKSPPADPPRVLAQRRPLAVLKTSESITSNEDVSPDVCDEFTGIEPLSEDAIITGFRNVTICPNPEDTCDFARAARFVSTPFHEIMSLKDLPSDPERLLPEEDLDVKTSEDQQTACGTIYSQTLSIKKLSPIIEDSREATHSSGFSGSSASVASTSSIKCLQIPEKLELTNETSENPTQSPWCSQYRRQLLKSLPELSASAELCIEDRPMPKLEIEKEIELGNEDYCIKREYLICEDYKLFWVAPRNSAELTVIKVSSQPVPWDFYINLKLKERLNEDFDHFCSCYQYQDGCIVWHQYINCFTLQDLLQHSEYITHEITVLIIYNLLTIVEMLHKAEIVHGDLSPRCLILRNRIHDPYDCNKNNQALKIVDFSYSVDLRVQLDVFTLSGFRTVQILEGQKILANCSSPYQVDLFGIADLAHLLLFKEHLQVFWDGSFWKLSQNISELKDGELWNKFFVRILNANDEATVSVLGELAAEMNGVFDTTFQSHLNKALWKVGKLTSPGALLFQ
substance,measurement,setting,value
"H-YGRKKRRQRRRYNLRSRTVLCGTCGQPADKASASGSGAQSPQNCSIM-OH (cysteines drawn unpaired) [UPCP, unique progerin C-terminal peptide]",SA-β-gal positive cells,"HGADFN167 cells; HGADFN167, replicate 1",24%
same,SA-β-gal positive cells,"HGADFN167 cells; HGADFN167, replicate 2",26%
same,SA-β-gal positive cells,"HGADFN167 cells; HGADFN167, replicate 3",20%
same,mobility,"Lmna^G609G/G609G mice [1]; 20 mg kg^–1 i.p. every other day, open field, 20 min",enhanced the mobility
same,Distance,"Lmna^G609G/G609G mice [1]; female mice, Fig. 6g",3465.62 cm and 4842.39 cm and 4480.91 cm and 4399.08 cm and 3236.68 cm and 4440.93 cm
same,Distance,"Lmna^G609G/G609G mice [1]; male mice, Fig. 6h",5127.23 cm and 4324.53 cm and 5298.93 cm and 5261.99 cm and 4436.52 cm and 3525.05 cm
same,binding of BUBR1 to PTBP1,BUBR1–PTBP1 binding,did not block the binding of BUBR1 to other proteins such as PTBP1
same,"bodyweight, female",Lmna^G609G/G609G mice [2]; female,slow down the bodyweight loss
same,"bodyweight, male",Lmna^G609G/G609G mice [2]; male,increase the bodyweight
same,"Dose Response Curve, Response","BUBR1; Dose 3.125e-6, Err-Value 0.164542",928.56
same,"Dose Response Curve, Response","BUBR1; Dose 6.25e-6, Err-Value 0.285623",930.678
same,"Dose Response Curve, Response","BUBR1; Dose 1.25e-5, Err-Value 0.150599",932.492
same,"Dose Response Curve, Response","BUBR1; Dose 1.22E-08, Err-Value 0.206069",919.933
same,"Dose Response Curve, Response","BUBR1; Dose 1.53E-09, Err-Value 0.561265",919.392
same,"Dose Response Curve, Response","BUBR1; Dose 1.56E-06, Err-Value 0.465775",925.424
same,"Dose Response Curve, Response","BUBR1; Dose 1.95E-07, Err-Value 0.135144",920.487
same,"Dose Response Curve, Response","BUBR1; Dose 2.44E-08, Err-Value 0.0972446",919.498
same,"Dose Response Curve, Response","BUBR1; Dose 3.05E-09, Err-Value 0.226695",919.513
same,"Dose Response Curve, Response","BUBR1; Dose 3.81E-10, Err-Value 0.379307",919.141
same,"Dose Response Curve, Response","BUBR1; Dose 3.91E-07, Err-Value 0.144905",921.751
same,"Dose Response Curve, Response","BUBR1; Dose 4.88E-08, Err-Value 0.856541",920.216
same,"Dose Response Curve, Response","BUBR1; Dose 6.10E-09, Err-Value 0.130907",919.306
same,"Dose Response Curve, Response","BUBR1; Dose 7.63E-10, Err-Value 0.475828",919.4
same,"Dose Response Curve, Response","BUBR1; Dose 7.81E-07, Err-Value 0.529145",922.85
same,"Dose Response Curve, Response","BUBR1; Dose 9.77E-08, Err-Value 0.363098",919.824
